In US20060258681A1, “3-Z-[1-(4-(N-((4-Methyl-piperazin-1-yl)-methylcarbonyl)-N-methyl-amino)-anilino)-1-phenyl-methylene]-6-methoxycarbonyl-2-indolinone-monoethanesulphonate and the use thereof as a pharmaceutical composition” (priority 2002, published 2006):

Columns and labels:
[1] = solubility in physiologically acceptable solvents; type: physicochemical
hygroscopicity = type: physicochemical
[2] = amorphisation during grinding and compression; type: physicochemical
VEGFR-3 = VEGFR-3 (Homo sapiens, UniProt P35916); assay: standard known kinase inhibition assay, VEGFR-3; type: biochemical
Excerpt: (§1) Experimental studies have shown that a metabolite of the compound 3-Z-[1-(4-(N-((4-methyl-piperazin-1-yl)-methylcarbonyl)-N-methyl-amino)-anilino)-1-phenyl-methylene]-6-methoxycarbonyl-2-indolinone-monoethanesulphonate is the de-esterified 3-Z-[1-(4-(N-((4-methyl-piperazin-1-yl)-carbonyl)-N-methyl-amino)-anilino)-1-phenyl-methylene]-6-carboxy-2-indolinone. The in-vitro inhibitory activity of this metabolite on several kinases has been evaluated, using standard known kinase inhibition assays as well as a standard known cellular proliferation inhibition assay (inhibition of the proliferation of Human Umbilical Cord Endothelial Cells stimulated by the VEGF, the so-called “HUVEC cellular assay”). These experimental results have shown that this metabolite inhibits several kinases, such as VEGFR-2, VEGFR-3, Her-2, FGFR-1, PDGFR-alpha or InsR, as well as the proliferation of HUVEC VEGF stimulated cells.

Her-2 = Her-2 (Homo sapiens, UniProt P04626); assay: standard known kinase inhibition assay, Her-2; type: biochemical
Her-2, sequence (P04626 23-1255, species assumed): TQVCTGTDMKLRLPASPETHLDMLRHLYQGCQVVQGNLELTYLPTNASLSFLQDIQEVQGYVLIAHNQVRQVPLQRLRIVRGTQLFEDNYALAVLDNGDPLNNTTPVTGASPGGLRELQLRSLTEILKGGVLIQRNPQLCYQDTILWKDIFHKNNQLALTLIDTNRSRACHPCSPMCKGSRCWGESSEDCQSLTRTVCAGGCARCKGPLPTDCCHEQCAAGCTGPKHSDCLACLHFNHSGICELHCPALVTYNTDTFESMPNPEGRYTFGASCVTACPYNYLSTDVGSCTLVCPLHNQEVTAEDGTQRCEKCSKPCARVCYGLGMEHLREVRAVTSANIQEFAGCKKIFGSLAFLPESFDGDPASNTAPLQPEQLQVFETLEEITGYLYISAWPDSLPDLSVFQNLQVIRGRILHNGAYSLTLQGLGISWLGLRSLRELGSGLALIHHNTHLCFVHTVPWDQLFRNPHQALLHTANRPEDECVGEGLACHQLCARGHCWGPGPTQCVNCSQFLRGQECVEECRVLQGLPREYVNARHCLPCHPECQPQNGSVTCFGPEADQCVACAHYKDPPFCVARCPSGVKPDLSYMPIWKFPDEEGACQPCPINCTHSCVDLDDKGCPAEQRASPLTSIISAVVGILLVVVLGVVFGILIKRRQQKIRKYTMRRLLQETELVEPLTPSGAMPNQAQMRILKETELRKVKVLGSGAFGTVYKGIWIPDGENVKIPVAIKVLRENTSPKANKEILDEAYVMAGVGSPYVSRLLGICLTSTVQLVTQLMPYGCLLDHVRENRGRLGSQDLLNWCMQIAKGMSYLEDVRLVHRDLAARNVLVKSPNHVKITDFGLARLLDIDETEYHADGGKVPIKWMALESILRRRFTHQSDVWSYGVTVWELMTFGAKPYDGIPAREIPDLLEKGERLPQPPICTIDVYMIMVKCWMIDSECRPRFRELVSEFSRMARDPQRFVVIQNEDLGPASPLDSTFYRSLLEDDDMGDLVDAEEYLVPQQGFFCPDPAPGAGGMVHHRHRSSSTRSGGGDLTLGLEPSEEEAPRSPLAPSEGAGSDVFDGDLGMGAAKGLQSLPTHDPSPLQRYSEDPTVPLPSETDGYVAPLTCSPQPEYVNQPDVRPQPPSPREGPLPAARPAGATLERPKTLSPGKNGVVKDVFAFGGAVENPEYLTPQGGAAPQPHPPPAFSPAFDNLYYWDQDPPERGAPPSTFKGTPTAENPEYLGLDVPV
Excerpt: as §1

VEGFR-2 = VEGFR-2 (Homo sapiens, UniProt P35968); assay: standard known kinase inhibition assay, VEGFR-2; type: biochemical
VEGFR-2, sequence (P35968 20-1356, species assumed): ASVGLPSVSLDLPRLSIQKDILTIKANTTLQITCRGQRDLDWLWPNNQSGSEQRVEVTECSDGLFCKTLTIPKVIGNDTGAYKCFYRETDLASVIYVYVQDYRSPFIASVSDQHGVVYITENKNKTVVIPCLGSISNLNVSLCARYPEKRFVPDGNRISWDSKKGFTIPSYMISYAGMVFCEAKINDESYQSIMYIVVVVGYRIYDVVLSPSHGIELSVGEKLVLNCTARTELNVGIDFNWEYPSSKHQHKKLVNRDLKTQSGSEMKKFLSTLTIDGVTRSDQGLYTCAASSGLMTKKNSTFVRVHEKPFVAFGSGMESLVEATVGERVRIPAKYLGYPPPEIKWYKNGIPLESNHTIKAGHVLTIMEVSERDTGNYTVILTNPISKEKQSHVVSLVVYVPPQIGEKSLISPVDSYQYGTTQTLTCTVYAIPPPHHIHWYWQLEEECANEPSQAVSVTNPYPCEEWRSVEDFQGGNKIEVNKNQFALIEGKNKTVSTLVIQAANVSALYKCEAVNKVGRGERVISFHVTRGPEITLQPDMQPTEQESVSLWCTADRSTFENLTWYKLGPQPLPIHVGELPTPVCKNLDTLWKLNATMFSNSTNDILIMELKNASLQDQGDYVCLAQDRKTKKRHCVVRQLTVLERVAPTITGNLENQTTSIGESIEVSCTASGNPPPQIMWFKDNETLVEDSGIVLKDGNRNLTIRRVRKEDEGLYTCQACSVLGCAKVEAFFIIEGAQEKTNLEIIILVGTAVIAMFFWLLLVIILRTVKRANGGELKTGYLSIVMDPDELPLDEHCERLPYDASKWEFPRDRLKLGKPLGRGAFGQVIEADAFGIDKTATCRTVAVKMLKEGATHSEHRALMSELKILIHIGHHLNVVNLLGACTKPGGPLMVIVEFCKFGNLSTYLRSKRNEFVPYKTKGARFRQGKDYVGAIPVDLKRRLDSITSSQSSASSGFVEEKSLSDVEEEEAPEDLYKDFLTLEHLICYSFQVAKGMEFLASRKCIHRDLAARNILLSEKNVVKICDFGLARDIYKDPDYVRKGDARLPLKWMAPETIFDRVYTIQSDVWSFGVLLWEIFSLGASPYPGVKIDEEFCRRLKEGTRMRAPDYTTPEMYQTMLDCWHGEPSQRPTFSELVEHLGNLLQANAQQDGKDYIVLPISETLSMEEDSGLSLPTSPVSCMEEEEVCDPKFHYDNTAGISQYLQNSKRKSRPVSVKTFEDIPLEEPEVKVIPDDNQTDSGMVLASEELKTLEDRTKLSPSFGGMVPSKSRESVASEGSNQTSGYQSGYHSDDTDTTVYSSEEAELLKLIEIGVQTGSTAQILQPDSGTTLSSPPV
Excerpt: as §1

[3] = system: Human Umbilical Cord Endothelial Cells stimulated by the VEGF; assay: HUVEC cellular assay (cellular proliferation inhibition); type: cell-based
Excerpt: as §1

InsR = InsR (Homo sapiens, UniProt P06213); assay: standard known kinase inhibition assay, InsR; type: biochemical
Excerpt: as §1

FGFR-1 = FGFR-1 (Homo sapiens, UniProt P11362); assay: standard known kinase inhibition assay, FGFR-1; type: biochemical
FGFR-1, sequence (P11362 22-822, species assumed): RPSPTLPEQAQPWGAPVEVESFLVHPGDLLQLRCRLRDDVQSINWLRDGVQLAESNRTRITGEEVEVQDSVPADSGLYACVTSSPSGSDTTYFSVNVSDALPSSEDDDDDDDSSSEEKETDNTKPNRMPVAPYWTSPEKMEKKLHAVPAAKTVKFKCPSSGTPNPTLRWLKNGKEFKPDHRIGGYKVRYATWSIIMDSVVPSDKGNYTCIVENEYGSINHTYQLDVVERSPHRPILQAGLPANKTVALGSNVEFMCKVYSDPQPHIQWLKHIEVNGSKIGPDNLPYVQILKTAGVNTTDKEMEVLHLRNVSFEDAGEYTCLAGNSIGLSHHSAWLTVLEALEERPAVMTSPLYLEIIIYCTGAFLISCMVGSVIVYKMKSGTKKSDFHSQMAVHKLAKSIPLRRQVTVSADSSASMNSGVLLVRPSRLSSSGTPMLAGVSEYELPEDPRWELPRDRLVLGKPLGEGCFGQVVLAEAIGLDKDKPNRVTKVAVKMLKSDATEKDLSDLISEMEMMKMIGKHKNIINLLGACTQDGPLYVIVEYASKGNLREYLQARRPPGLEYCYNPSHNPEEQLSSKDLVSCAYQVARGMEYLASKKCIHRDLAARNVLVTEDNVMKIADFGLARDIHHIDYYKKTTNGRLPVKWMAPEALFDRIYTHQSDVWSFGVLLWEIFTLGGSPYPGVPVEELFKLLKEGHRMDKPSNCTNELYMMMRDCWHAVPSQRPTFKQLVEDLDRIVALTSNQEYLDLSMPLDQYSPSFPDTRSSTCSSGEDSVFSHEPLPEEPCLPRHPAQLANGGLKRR
Excerpt: as §1

PDGFR-alpha = PDGFR-alpha (Homo sapiens, UniProt P16234); assay: standard known kinase inhibition assay, PDGFR-alpha; type: biochemical
PDGFR-alpha, sequence (P16234 24-1089, species assumed): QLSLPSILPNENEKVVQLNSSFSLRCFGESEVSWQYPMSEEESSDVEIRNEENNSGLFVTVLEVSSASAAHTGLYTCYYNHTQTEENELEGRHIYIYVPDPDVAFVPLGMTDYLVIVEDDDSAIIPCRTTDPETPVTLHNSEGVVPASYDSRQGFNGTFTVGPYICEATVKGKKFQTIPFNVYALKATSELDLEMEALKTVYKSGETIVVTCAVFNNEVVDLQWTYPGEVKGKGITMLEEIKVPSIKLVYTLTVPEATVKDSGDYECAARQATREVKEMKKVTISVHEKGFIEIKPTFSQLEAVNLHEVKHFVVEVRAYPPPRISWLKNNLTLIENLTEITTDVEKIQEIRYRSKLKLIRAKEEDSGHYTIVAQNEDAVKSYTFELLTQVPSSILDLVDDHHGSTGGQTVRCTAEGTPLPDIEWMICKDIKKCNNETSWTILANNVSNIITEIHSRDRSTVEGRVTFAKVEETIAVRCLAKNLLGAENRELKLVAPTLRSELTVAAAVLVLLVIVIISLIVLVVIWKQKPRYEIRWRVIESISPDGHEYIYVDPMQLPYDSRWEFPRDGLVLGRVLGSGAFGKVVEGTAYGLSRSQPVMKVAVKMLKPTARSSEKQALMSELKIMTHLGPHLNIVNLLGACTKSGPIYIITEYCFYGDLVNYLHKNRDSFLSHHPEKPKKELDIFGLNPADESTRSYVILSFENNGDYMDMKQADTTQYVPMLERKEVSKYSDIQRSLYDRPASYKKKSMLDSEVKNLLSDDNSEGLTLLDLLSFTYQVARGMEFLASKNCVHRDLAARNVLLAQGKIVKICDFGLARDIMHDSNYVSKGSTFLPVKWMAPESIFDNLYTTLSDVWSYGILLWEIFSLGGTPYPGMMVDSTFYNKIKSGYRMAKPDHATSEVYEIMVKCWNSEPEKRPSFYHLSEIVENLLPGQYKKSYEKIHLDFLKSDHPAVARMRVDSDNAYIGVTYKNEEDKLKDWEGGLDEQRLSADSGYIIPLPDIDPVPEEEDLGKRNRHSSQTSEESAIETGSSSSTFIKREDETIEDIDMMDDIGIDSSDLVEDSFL
Excerpt: as §1

SMILES	solubility [1]	hygroscopicity (hygroscopicity)	amorphisation [2]	in-vitro inhibitory activity on VEGFR-3 (VEGFR-3)	in-vitro inhibitory activity on Her-2 (Her-2)	in-vitro inhibitory activity on VEGFR-2 (VEGFR-2)	inhibition of the proliferation of HUVEC VEGF stimulated cells [3]	in-vitro inhibitory activity on InsR (InsR)	in-vitro inhibitory activity on FGFR-1 (FGFR-1)	in-vitro inhibitory activity on PDGFR-alpha (PDGFR-alpha)
CCS(=O)(=O)O.COC(=O)c1ccc2c(c1)NC(=O)/C2=C(\Nc1ccc(N(C)C(=O)CN2CCN(C)CC2)cc1)c1ccccc1 [monoethanesulphonate, 3-Z-[1-(4-(N-((4-methyl-piperazin-1-yl)-methylcarbonyl)-N-methyl-amino)-anilino)-1-phenyl-methylene]-6-methoxycarbonyl-2-indolinone-monoethanesulphonate]	readily soluble	not hygroscopic	low amorphisation	–	–	–	–	–	–	–
CN1CCN(C(=O)N(C)c2ccc(N/C(=C3\C(=O)Nc4cc(C(=O)O)ccc43)c3ccccc3)cc2)CC1 [3-Z-[1-(4-(N-((4-methyl-piperazin-1-yl)-carbonyl)-N-methyl-amino)-anilino)-1-phenyl-methylene]-6-carboxy-2-indolinone]	–	–	–	inhibits	inhibits	inhibits	inhibits	inhibits	inhibits	inhibits
